Laboratory results published in patent US9889115B2, “Fitness assay and associated methods” (priority 1998, dated 2018).

Tests used:
Format in all cases: cell-based
[1] = system: multidrug-resistant HIV-1 clinical isolate, patient 28; assay: microbe, parasite or virus in culture; conditions: Human immunodeficiency virus 1; Patient Isolate 28
Method: (§1) The mutant multidrug-resistant HIV-1 strains corresponding to each patient, numbered 9-35, were genetically analyzed in terms of the nucleic acid sequences of the protease (PR) and a portion of the reverse transcriptase (RT) genes from which mutations in these enzymes were determined. The mutations in the protease and reverse transcriptase of the multidrug-resistant viruses isolated from each patient are shown below in Table 9b.

[2] = system: multidrug-resistant HIV-1 clinical isolate, patient 32; assay: microbe, parasite or virus in culture; conditions: Human immunodeficiency virus 1; Patient Isolate 32
Method: as §1

[3] = system: multidrug-resistant HIV-1 clinical isolate, patient 18; assay: microbe, parasite or virus in culture; conditions: Human immunodeficiency virus 1; Patient Isolate 18
Method: as §1

[4] = system: multidrug-resistant HIV-1 clinical isolate, patient 19; assay: microbe, parasite or virus in culture; conditions: Human immunodeficiency virus 1; Patient Isolate 19
Method: as §1

[5] = system: multidrug-resistant HIV-1 clinical isolate, patient 30; assay: microbe, parasite or virus in culture; conditions: Human immunodeficiency virus 1; Patient Isolate 30
Method: as §1

[6] = system: multidrug-resistant HIV-1 clinical isolate, patient 10; assay: microbe, parasite or virus in culture; conditions: Human immunodeficiency virus 1; Patient Isolate 10
Method: as §1

[7] = system: multidrug-resistant HIV-1 clinical isolate, patient 21; assay: microbe, parasite or virus in culture; conditions: Human immunodeficiency virus 1; Patient Isolate 21
Method: as §1

[8] = system: multidrug-resistant HIV-1 clinical isolate, patient 16; assay: microbe, parasite or virus in culture; conditions: Human immunodeficiency virus 1; Patient Isolate 16
Method: as §1

[9] = system: multidrug-resistant HIV-1 clinical isolate, patient 9; assay: microbe, parasite or virus in culture; conditions: Human immunodeficiency virus 1; Patient Isolate 9
Method: as §1

[10] = system: multidrug-resistant HIV-1 clinical isolate, patient 31; assay: microbe, parasite or virus in culture; conditions: Human immunodeficiency virus 1; Patient Isolate 31
Method: as §1

[11] = system: multidrug-resistant HIV-1 clinical isolate, patient 12; assay: microbe, parasite or virus in culture; conditions: Human immunodeficiency virus 1; Patient Isolate 12
Method: as §1

[12] = system: multidrug-resistant HIV-1 clinical isolate, patient 27; assay: microbe, parasite or virus in culture; conditions: Human immunodeficiency virus 1; Patient Isolate 27
Method: as §1

[13] = system: multidrug-resistant HIV-1 clinical isolate, patient 33; assay: microbe, parasite or virus in culture; conditions: Human immunodeficiency virus 1; Patient Isolate 33
Method: as §1

[14] = system: multidrug-resistant HIV-1 clinical isolate, patient 11; assay: microbe, parasite or virus in culture; conditions: Human immunodeficiency virus 1; Patient Isolate 11
Method: as §1

[15] = system: multidrug-resistant HIV-1 clinical isolate, patient 17; assay: microbe, parasite or virus in culture; conditions: Human immunodeficiency virus 1; Patient Isolate 17
Method: as §1

[16] = system: multidrug-resistant HIV-1 clinical isolate, patient 23; assay: microbe, parasite or virus in culture; conditions: Human immunodeficiency virus 1; Patient Isolate 23
Method: as §1

[17] = system: multidrug-resistant HIV-1 clinical isolate, patient 14; assay: microbe, parasite or virus in culture; conditions: Human immunodeficiency virus 1; Patient Isolate 14
Method: as §1

[18] = system: multidrug-resistant HIV-1 clinical isolate, patient 29; assay: microbe, parasite or virus in culture; conditions: Human immunodeficiency virus 1; Patient Isolate 29
Method: as §1

[19] = system: multidrug-resistant HIV-1 clinical isolate, patient 35; assay: microbe, parasite or virus in culture; conditions: Human immunodeficiency virus 1; Patient Isolate 35
Method: as §1

[20] = system: multidrug-resistant HIV-1 clinical isolate, patient 13; assay: microbe, parasite or virus in culture; conditions: Human immunodeficiency virus 1; Patient Isolate 13
Method: as §1

[21] = system: multidrug-resistant HIV-1 clinical isolate, patient 15; assay: microbe, parasite or virus in culture; conditions: Human immunodeficiency virus 1; Patient Isolate 15
Method: as §1

[22] = system: multidrug-resistant HIV-1 clinical isolate, patient 20; assay: microbe, parasite or virus in culture; conditions: Human immunodeficiency virus 1; Patient Isolate 20
Method: as §1

HIV-1LAI = assay: PHA-PBMC assay, p24 Gag protein production; conditions: Human immunodeficiency virus 1; HIV-1LAI, SI; PHA-PBMC, p24 (Table 3)
[23] = system: multidrug-resistant HIV-1 clinical isolate, patient 34; assay: IC50 against multidrug-resistant clinical isolates (Table 9a); conditions: Human immunodeficiency virus 1
Method: as §1

[24] = system: multidrug-resistant HIV-1 clinical isolate, patient 22; assay: as above; conditions: Human immunodeficiency virus 1
Method: as §1

HIV-1BAL = assay: PHA-PBMC assay, p24 Gag protein production; conditions: Human immunodeficiency virus 1; HIV-1BAL, NSI; PHA-PBMC, p24 (Table 3)
[25] = system: multidrug-resistant HIV-1 clinical isolate, patient 8; assay: PHA-PBMC assay, p24 Gag protein production; conditions: Human immunodeficiency virus 1; Patient/Isolate code 8; PHA-PBMC, p24
Method: (§2) The patient profiles are shown below in Table 2.
(§3) To determine protease inhibitory activity against multidrug resistant HIV, the IC50's were measured against a panel of clinically isolated mutant HIV isolates.
(§4) All drug sensitivities were performed in triplicate. In order to determine whether the HIV isolates were syncitium inducing (SI) or non-syncitium inducing (NSI), an aliquot of viral stock supernatant, containing 100 TCID50, was cultured with 1×10^5 MT-2 cells in a 12-well plate. Cultures were maintained for four weeks and were examined for syncytium formation twice a week.

HIV-1ERS104pre = assay: PHA-PBMC assay, p24 Gag protein production; conditions: Human immunodeficiency virus 1; HIV-1ERS104pre, SI; PHA-PBMC, p24
Method: as §2, §3, §4

[26] = system: multidrug-resistant HIV-1 clinical isolate, patient 2; assay: PHA-PBMC assay, p24 Gag protein production; conditions: Human immunodeficiency virus 1; Patient/Isolate code 2; PHA-PBMC, p24
Method: as §2, §3, §4

[27] = system: multidrug-resistant HIV-1 clinical isolate, patient 4; assay: PHA-PBMC assay, p24 Gag protein production; conditions: Human immunodeficiency virus 1; Patient/Isolate code 4; PHA-PBMC, p24
Method: as §2, §3, §4

[28] = system: multidrug-resistant HIV-1 clinical isolate, patient 1; assay: PHA-PBMC assay, p24 Gag protein production; conditions: Human immunodeficiency virus 1; Patient/Isolate code 1; PHA-PBMC, p24
Method: as §2, §3, §4

[29] = system: multidrug-resistant HIV-1 clinical isolate, patient 5; assay: PHA-PBMC assay, p24 Gag protein production; conditions: Human immunodeficiency virus 1; Patient/Isolate code 5; PHA-PBMC, p24
Method: as §2, §3, §4

[30] = system: multidrug-resistant HIV-1 clinical isolate, patient 3; assay: PHA-PBMC assay, p24 Gag protein production; conditions: Human immunodeficiency virus 1; Patient/Isolate code 3; PHA-PBMC, p24
Method: as §2, §3, §4

[31] = system: multidrug-resistant HIV-1 clinical isolate, patient 6; assay: PHA-PBMC assay, p24 Gag protein production; conditions: Human immunodeficiency virus 1; Patient/Isolate code 6; PHA-PBMC, p24
Method: as §2, §3, §4

[32] = system: multidrug-resistant HIV-1 clinical isolate, patient 7; assay: PHA-PBMC assay, p24 Gag protein production; conditions: Human immunodeficiency virus 1; Patient/Isolate code 7; PHA-PBMC, p24
Method: as §2, §3, §4

wild-type HIV-1 (WT) = assay: IC50 against wild-type HIV-1 (Table 9a); conditions: Human immunodeficiency virus 1; (WT)

SMILES: CC(C)(C)NC(=O)[C@@H]1C[C@@H]2CCCC[C@@H]2CN1C[C@@H](O)[C@H](Cc1ccccc1)NC(=O)[C@H](CC(N)=O)NC(=O)c1ccc2ccccc2n1 [SAQ, Saquinavir]
- IC50 [1]: > 312 nM
- IC50 [2]: > 312 nM
- IC50 [3]: 39 nM
- IC50 [4]: 55 nM
- IC50 [5]: 191 nM
- IC50 [6]: > 312 nM
- IC50 [7]: 210 nM
- IC50 [8]: > 312 nM
- IC50 [9]: > 312 nM
- IC50 [10]: 74 nM
- IC50 [11]: > 312 nM
- IC50 [12]: > 312 nM
- IC50 [13]: 59 nM
- IC50 [14]: 1 nM
- IC50 [15]: 107 nM
- IC50 [16]: 8 nM
- IC50 [17]: 40 nM
- IC50 [18]: 50 nM
- IC50 [19]: 61.6 nM
- IC50 [20]: > 312 nM
- IC50 [21]: > 312 nM
- IC50 [22]: 32 nM
- IC50 (HIV-1LAI): 5.4 nM
- IC50 [23]: 63 nM
- IC50 [24]: 3 nM
- IC50 (HIV-1BAL): 3.7 nM
- IC50 [25]: 9 nM
- IC50 (HIV-1ERS104pre): 10 nM
- IC50 [26]: 35 nM
- IC50 [27]: 33 nM
- IC50 [28]: 290 nM
- IC50 [29]: 240 nM
- IC50 [30]: 36 nM
- IC50 [31]: 190 nM
- IC50 [32]: 120 nM
- IC50 (wild-type HIV-1 (WT)): 7 nM
